In ChEMBL document CHEMBL5260848, “Recent advancements in the development of bioactive pyrazoline derivatives” (Eur J Med Chem, 2020):
In brackets after ≈: the same amount, converted by molar mass.

Key:
[1] = test system: RAW264.7; test: Antiinflammatory activity in LPS-induced mouse RAW264.7 cells assessed as inhibition of LPS induced NO production; format: functional, cell-based
[2] = test system: RAW264.7; test: Cytotoxicity against mouse RAW264.7 cells relative to control; format: functional
[3] = test system: MCF7; test: cells; conditions: Homo sapiens
[4] = test system: Huh-7; test: Cytotoxicity against human Huh-7 cells; format: functional, cell-based
[5] = test system: Rattus norvegicus; test: Antiinflammatory activity in carrageenan induced rat paw edema model assessed inhibition of TNF-alpha level; format: functional, organism-based
[6] = test system: Escherichia coli; test: Antibacterial activity against Escherichia coli assessed as inhibition of bacterial growth; format: functional
[7] = test system: Pseudomonas aeruginosa; test: Antibacterial activity against Pseudomonas aeruginosa assessed as inhibition of bacterial growth; format: functional
[8] = test system: Staphylococcus aureus; test: microbe, parasite or virus in culture
[9] = test system: Bacillus subtilis; test: microbe, parasite or virus in culture
[10] = test system: HepG2; test: Cytotoxicity against human HepG2 cells assessed as reduction in cell viability; format: functional, cell-based
[11] = test system: HeLa; test: Cytotoxicity against human HeLa cells assessed as reduction in cell viability; format: functional, cell-based
[12] = test system: Escherichia coli; test: Antibacterial activity against Escherichia coli by agar dilution method; format: functional
[13] = test system: Pseudomonas aeruginosa; test: Antibacterial activity against Pseudomonas aeruginosa by agar dilution method; format: functional
[14] = test system: Staphylococcus aureus; test: Antibacterial activity against Staphylococcus aureus by agar dilution method; format: functional
[15] = test system: Bacillus subtilis; test: Antibacterial activity against Bacillus subtilis by agar dilution method; format: functional
[16] = test system: Escherichia coli; test: Potency index, ratio of ampicillin MIC to compound MIC for Escherichia coli by agar dilution method; format: functional
[17] = test system: Staphylococcus aureus; test: Potency index, ratio of ampicillin MIC to compound MIC for Staphylococcus aureus by agar dilution method; format: functional
[18] = test system: Candida albicans; test: Antifungal activity against Candida albicans by agar dilution method; format: functional
[19] = Antioxidant activity assessed as DPPH radical scavenging activity; format: functional
[20] = test system: Escherichia coli; test: Antibacterial activity against Escherichia coli incubated for 24 hrs by disc diffusion method; format: functional
[21] = test system: Aspergillus fumigatus; test: Antifungal activity against Aspergillus fumigatus incubated for 24 hrs by disc diffusion method; format: functional
[22] = test system: Aspergillus niger; test: Antifungal activity against Aspergillus niger incubated for 24 hrs by disc diffusion method; format: functional
[23] = test system: Aspergillus flavus; test: Antifungal activity against Aspergillus flavus incubated for 24 hrs by disc diffusion method; format: functional
[24] = test system: Staphylococcus aureus; test: microbe, parasite or virus in culture; conditions: 24 h
[25] = test system: Bacillus subtilis; test: microbe, parasite or virus in culture; conditions: 24 h
[26] = test system: Pseudomonas aeruginosa; test: microbe, parasite or virus in culture; conditions: 24 h
[27] = test system: Candida albicans; test: microbe, parasite or virus in culture; conditions: 24 h
[28] = test system: Staphylococcus aureus; test: microbe, parasite or virus in culture; remark: listed apart in the source
[29] = test system: Candida albicans; test: microbe, parasite or virus in culture
[30] = test system: DU-145; test: Cytotoxicity against human DU-145 cells by SRB assay; format: functional
[31] = target: Tubulin (Homo sapiens) (UniProt P68371+Q9H4B7+P0DPH7+P68366+Q13509+Q71U36+P04350+Q3ZCM7+P07437+P68363+Q9BQE3+Q6PEY2+Q13885+Q9BVA1+Q9BUF5); test: Inhibition of tubulin polymerization (unknown origin) by fluorescence assay relative to control; format: protein-complex assay; conditions: concentration not given here
[32] = test system: HepG2; test: Cytotoxicity against human HepG2 cells; format: functional, cell-based
[33] = test system: Mycobacterium tuberculosis; test: Antimycobacterial activity against Mycobacterium tuberculosis; format: functional
[34] = test system: Mycobacterium tuberculosis; test: microbe, parasite or virus in culture; conditions: 120 h
[35] = test system: Escherichia coli; test: microbe, parasite or virus in culture
[36] = test system: Pseudomonas aeruginosa; test: microbe, parasite or virus in culture
[37] = test system: HepG2; test: Cytotoxicity against human HepG2 cells by SRB assay; format: functional
[38] = test system: Rattus norvegicus; test: Antiinflammatory activity in carrageenan induced rat paw edema model relative to indomethacin; format: functional
[39] = test system: Staphylococcus aureus; test: Antibacterial activity against Staphylococcus aureus; format: functional
[40] = test system: Rhizopus arrhizus; test: Antifungal activity against Rhizopus oryzae; format: functional
[41] = test system: Aspergillus niger; test: Antifungal activity against Aspergillus niger by agar dilution method; format: functional
[42] = test system: Staphylococcus aureus; test: microbe, parasite or virus in culture; remark: listed apart in the source
[43] = test system: Escherichia coli; test: microbe, parasite or virus in culture; remark: listed apart in the source
[44] = test system: Aspergillus clavatus; test: Antifungal activity against Aspergillus clavatus; format: functional
[45] = test system: Candida albicans; test: Antifungal activity against Candida albicans; format: functional
[46] = test system: Aspergillus niger; test: Antifungal activity against Aspergillus niger; format: functional
[47] = test system: Streptococcus pyogenes; test: Antibacterial activity against Streptococcus pyogenes assessed as inhibition of microbial growth; format: functional
[48] = test system: Staphylococcus aureus; test: Antibacterial activity against Staphylococcus aureus assessed as inhibition of microbial growth; format: functional
[49] = test system: Plasmodium falciparum; test: Antimalarial activity against chloroquine-sensitive Plasmodium falciparum 3D7; format: functional, organism-based

C[C@]12CC[C@H]3[C@@H](CC=C4C[C@@H](O)CC[C@@]43C)[C@@H]1CC[C@@H]2C1=NN(C(N)=S)C(c2ccccc2Cl)C1 (some centres not stated)
IC50 [1]: 860 nM
Activity [2]: >90%

CNC(=S)N1N=C(c2nnn(-c3ccc(-n4nnc(C5=NN(C(=S)NC)C(c6ccccc6)C5)c4C)cc3)c2C)CC1c1ccccc1 (configuration not stated)
IC50 [3]: 32.3 µg/mL (≈ 47.8 µM)

COc1cc(C2CC(c3c4ccccc4cc4ccccc34)=NN2c2nc(-c3ccc(F)cc3)c(C#N)c(=O)[nH]2)cc(OC)c1OC (configuration not stated)
IC50 [4]: 4.78 µg/mL (≈ 7.64 µM)

Cc1ccc(/C=C/C2=NN(c3ccccc3)C(c3ccc(C)s3)C2)s1 (configuration not stated)
IC50 [5]: 1.7 nM

CC(=O)N1N=C(c2ccc(Br)cc2)CC1c1cc(Cl)ccc1Oc1c([N+](=O)[O-])cc(C(F)(F)F)cc1[N+](=O)[O-] (configuration not stated)
MIC [6]: 0.39 µg/mL (≈ 0.621 µM)
MIC [7]: 0.39 µg/mL (≈ 0.621 µM)
MIC [8]: 3.12 µg/mL (≈ 4.98 µM)
MIC [9]: 3.12 µg/mL (≈ 4.98 µM)

COc1cc(C2CC(c3ccc(Cl)cc3)=NN2C(N)=S)cc(OC)c1OC (configuration not stated)
IC50 [10]: 16000 nM
IC50 [11]: 9370 nM

COc1ccc2c(c1)cc(C1CC(c3cc(Br)ccc3O)=NN1)c1nnnn12 (configuration not stated)
MIC [12]: 50 µg/mL (≈ 114 µM)
MIC [13]: 25 µg/mL (≈ 56.9 µM)
MIC [14]: 50 µg/mL (≈ 114 µM)
MIC [15]: 25 µg/mL (≈ 56.9 µM)
Ratio [16]: 2
Ratio [17]: 10
MIC [18]: 25 µg/mL (≈ 56.9 µM)
IC50 [19]: 21 µg/mL (≈ 47.8 µM)

OC(Cn1cncn1)(Cn1cncn1)c1ccc(F)cc1F [FLUCONAZOLE]
MIC [20]: 30 µg/mL (≈ 98 µM)
MIC [21]: 30 µg/mL (≈ 98 µM)
MIC [22]: 30 µg/mL (≈ 98 µM)
MIC [23]: 30 µg/mL (≈ 98 µM)
MIC [24]: 30 µg/mL (≈ 98 µM)
MIC [25]: 30 µg/mL (≈ 98 µM)
MIC [26]: 30 µg/mL (≈ 98 µM)
MIC [27]: 30 µg/mL (≈ 98 µM)
MIC [28]: < 10 µg/mL
MIC [29]: < 10 µg/mL

COc1ccc(/C=C/C(=O)c2cc(OC)c(OC)c(OC)c2)cc1OCc1cn(Cc2ccc(N)cc2)nn1
GI50 [30]: 1500 nM
inhibition [31]: 36%

CN(C)c1ccc(C2CC(c3c4ccccc4cc4ccccc34)=NN2c2nc(-c3ccc(F)cc3)c(C#N)c(=O)[nH]2)cc1 (configuration not stated)
IC50 [32]: 4.21 µg/mL (≈ 7.28 µM)

COc1ccc2c(c1)C1=NN(CCCN(C)C)C3=CC=C([N+](=O)[O-])C(N2)C31 (configuration not stated)
MIC [33]: 3.12 µg/mL (≈ 8.45 µM)
MIC [34]: 3.12 µg/mL (≈ 8.46 µM)

CN[C@@H]1[C@H](O[C@H]2[C@H](O[C@H]3[C@H](O)[C@@H](O)[C@H](N=C(N)N)[C@@H](O)[C@@H]3N=C(N)N)O[C@@H](C)[C@]2(O)C=O)O[C@@H](CO)[C@H](O)[C@H]1O [STREPTOMYCIN]
MIC [33]: 6.25 µg/mL (≈ 10.7 µM)
MIC [34]: 6.25 µg/mL (≈ 10.7 µM)

O=C(c1ccncc1)N1N=C(c2ccc(Cl)cc2)CC1c1cc2ccccc2nc1Cl (configuration not stated)
MIC [35]: 12.5 µg/mL (≈ 27.9 µM)
MIC [36]: 12.5 µg/mL (≈ 27.9 µM)

COc1cc(/C=C/C(=O)CC(=O)/C=C/c2ccc(O)c(OC)c2)ccc1O [CURCUMIN]
IC50 [5]: 53.4 nM

COc1ccc(C2CC(c3cc(OC)c(OC)c(OC)c3)=NN2C(C)=O)cc1OCc1cn(Cc2ccc(F)cc2)nn1 (configuration not stated)
GI50 [37]: 6700 nM

COc1ccc(N2N=C(/C=C/c3ccc(C)o3)CC2c2ccc(C)o2)cc1 (configuration not stated)
Activity [38]: 104%

NC[C@H]1O[C@H](O[C@H]2[C@H](O)[C@@H](O[C@H]3O[C@H](CO)[C@@H](O)[C@H](N)[C@H]3O)[C@H](N)C[C@@H]2N)[C@H](N)[C@@H](O)[C@@H]1O [BEKANAMYCIN]
MIC [6]: 1.56 µg/mL (≈ 3.23 µM)
MIC [7]: 1.56 µg/mL (≈ 3.23 µM)
MIC [8]: 1.56 µg/mL (≈ 3.23 µM)
MIC [9]: 1.56 µg/mL (≈ 3.23 µM)

COc1ccc(C2CC(c3cc4ccccc4oc3=O)=NN2c2ccccc2)cc1OC (configuration not stated)
MIC [39]: 12.5 µg/mL (≈ 29.3 µM)
MIC [40]: 12.5 µg/mL (≈ 29.3 µM)

COc1cccc2cc(C3CC(c4cc(Br)ccc4O)=NO3)c3nnnn3c12 (configuration not stated)
MIC [18]: 25 µg/mL (≈ 56.8 µM)
MIC [41]: 25 µg/mL (≈ 56.8 µM)

COC(=O)C1N=NN(CC(=O)N2N=C(c3ccccc3)CC2c2cccs2)C1C(=O)OC (configuration not stated)
MIC [42]: 3.9 µg/mL (≈ 8.56 µM)
MIC [43]: 3.9 µg/mL (≈ 8.56 µM)

O=C(c1ccncc1)N1N=C(c2ccc(Cl)cc2Cl)CC1c1cc2ccccc2nc1Cl (configuration not stated)
MIC [44]: 50 µg/mL (≈ 104 µM)
MIC [45]: 12.5 µg/mL (≈ 25.9 µM)
MIC [46]: 12.5 µg/mL (≈ 25.9 µM)
MIC [47]: 12.5 µg/mL
MIC [48]: 12.5 µg/mL

COc1cc(C2CC(c3cc4ccccc4oc3=O)=NN2C(=O)c2ccncc2)cc(OC)c1OC (configuration not stated)
IC50 [49]: 9.68 µg/mL (≈ 19.9 µM)
